Source: US8058437B2, “(Pyrroloquinoxalinyl) pyrazinecarbohydrazide-oxalic acid co-crystal for treatment of cancer and other diseases” (Novelix Pharmaceuticals, Inc., priority 2008, dated 2011)

Columns and labels:
[1] = system: TC71luc Ewing tumor cell line; assay: Ewing's sarcoma cell viability by luminescence, TC71luc; format: cell-based, human; settings: 72 hours
Protocol: (§1) Treatment of Ewing's sarcoma with NVX-412. The TC71luc and TC32luc Ewing tumor cell lines stably express the luciferase gene. Cells were seeded into 96-well plates 24 hours before treating with the active compound to allow attachment. Cells were treated with NVX-412 for 72 hours. Serial dilutions of NVX-412 were prepared in medium from a 10 μM stock solution in DMSO. […] After 72 hours, cell viability was measured by luminescence using a Saphire2 plate reader.

[2] = system: TC32luc Ewing tumor cell line; assay: Ewing's sarcoma cell viability by luminescence, TC32luc; format: cell-based, human; settings: 72 hours
Protocol: as §1

[3] = system: human cancer cell lines (NCI60); assay: Treatment of human cancer cell lines with NVX-412 (NCI screening procedure, SRB staining); format: cell-based
Protocol: Treatment of various cancer cell lines with NVX-412. Over 60 human cancer cell lines were treated with NVX-412 according to procedures detailed by the National Cancer Institute Developmental Therapeutics Program (see dtp.nci.nih.gov/branches/btb/ivclsp.html) and Shoemaker R H (Nat. Rev. Cancer, 6, 813-823, (2006)) and references cited therein. Many of the cell lines tested are available from the American Type Culture Collection (Rockville, Md., USA). The melanoma cell line 518A2 has been described previously (Jansen et al., “Activated N-Ras Contributes to the Chemoresistance of Human Melanoma in Severe Combined Immunodeficiency (SCID) Mice by Blocking Apoptosis,” Cancer Research 57, 362-65 (1997)). A typical screening of cancer cell treatment by NVX-412 employed the following procedure.
The human tumor cell lines of the cancer screening panel were grown in RPMI 1640 medium containing 5% fetal bovine serum and 2 mM L-glutamine. For a typical screening experiment, cells were inoculated into 96 well microtiter plates in 100 μL at plating densities ranging from 5,000 to 40,000 cells/well depending on the doubling time of individual cell lines. After cell inoculation, the microtiter plates were incubated at 37° C. in 5% CO2/95% air at 100% relative humidity for 24 hours prior to the addition of NVX-412. […]
Following the addition of NVX-412, the plates were incubated for an additional 48 hours at 37° C. in 5% CO2/95% air at 100% relative humidity. […] Bound stain was subsequently solubilized with 10 mM trizma base, and the absorbance was read on an automated plate reader at a wavelength of 515 nm. […] Using the seven absorbance measurements [time zero (Tz), control growth (C), and test growth in the presence of NVX-412 at the five concentration levels (Ti)], the percentage growth was calculated at each of the NVX-412 concentration levels. Percentage growth inhibition was calculated as: [(Ti−Tz)/(C−Tz)]*100 for concentrations for which Ti≧Tz [(Ti−Tz)/Tz]*100 for concentrations for which Ti<Tz.
Three dose response parameters were calculated. […]

O=C(NNc1nc2cc(F)ccc2n2cccc12)c1cnccn1.O=C(O)C(=O)O [NVX-412, N′-(7-fluoropyrrolo[1,2a]quinoxalin-4-yl)pyrazine-2-carbohydrazide oxalic acid co-crystal]
fraction of cells remaining after three days, mean ([1]; TC71, NVX-412 5 nM): 1.00 | fraction of cells remaining after three days, mean ([1]; TC71, NVX-412 10 nM): 0.97 | fraction of cells remaining after three days, mean ([1]; TC71, NVX-412 25 nM): 0.95 | fraction of cells remaining after three days, mean ([1]; TC71, NVX-412 50 nM): 0.92 | fraction of cells remaining after three days, mean ([1]; TC71, NVX-412 75 nM): 0.76 | fraction of cells remaining after three days, mean ([1]; TC71, NVX-412 100 nM): 0.50 | fraction of cells remaining after three days, mean ([1]; TC71, NVX-412 150 nM): 0.21 | fraction of cells remaining after three days, mean ([1]; TC71, NVX-412 200 nM): 0.08 | fraction of cells remaining after three days, mean ([1]; TC71, NVX-412 375 nM): 0.01 | fraction of cells remaining after three days, mean ([2]; TC32, NVX-412 5 nM): 1.03 | fraction of cells remaining after three days, mean ([2]; TC32, NVX-412 10 nM): 0.96 | fraction of cells remaining after three days, mean ([2]; TC32, NVX-412 25 nM): 0.95 | fraction of cells remaining after three days, mean ([2]; TC32, NVX-412 50 nM): 0.91 | fraction of cells remaining after three days, mean ([2]; TC32, NVX-412 75 nM): 0.69 | fraction of cells remaining after three days, mean ([2]; TC32, NVX-412 100 nM): 0.44 | fraction of cells remaining after three days, mean ([2]; TC32, NVX-412 150 nM): 0.15 | fraction of cells remaining after three days, mean ([2]; TC32, NVX-412 200 nM): 0.06 | fraction of cells remaining after three days, mean ([2]; TC32, NVX-412 375 nM): 0.01 | GI50 ([3]; almost all cell lines tested, 48 hours incubation): nanomolar range | inhibition of tumor cell growth ([3]; cancer cell lines tested, summary): pronounced inhibition of tumor cell growth | effectiveness against cancer cell lines ([3]; sarcoma, melanoma, and CNS cancer cell lines, summary): very effective
